Results published in patent publication US20230059009A1, “INHIBITORS OF LIN28 AND METHODS OF USE THEREOF” (The Regents of the University of California, priority 2019, published 2023).
pIC50: −log10 of the molar value.

Tests used:
[1] = biological target: T1, LIN28B/pre-let-7a-2 binding (Homo sapiens, UniProt Q6ZN17); assay: FRET assay, EGFP-tagged LIN28B and BHQ-1 labelled pre-let-7a-2; conditions: doses 1.25 uM-20 uM; compared with LN1632
T1 construct: made in house; host or cells: stably transduced HEK cells; used as diluted protein lysate, not purified
T1 sequence (Q6ZN17 1-250): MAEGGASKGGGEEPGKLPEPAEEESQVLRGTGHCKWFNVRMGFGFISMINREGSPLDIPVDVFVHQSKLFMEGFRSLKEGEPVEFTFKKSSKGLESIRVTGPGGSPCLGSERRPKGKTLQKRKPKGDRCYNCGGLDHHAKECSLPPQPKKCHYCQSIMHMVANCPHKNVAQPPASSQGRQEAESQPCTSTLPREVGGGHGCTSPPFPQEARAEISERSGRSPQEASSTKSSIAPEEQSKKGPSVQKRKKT
Protocol: As described herein, compounds of formula (I) and (II) show Lin28/let-7 inhibitory activity in FRET assays in vitro and in LSCs and LSC-like Kasumi-1 cells. FRET assay was performed as previously described (51).
In order to improve binding and inhibitory capacity of a compound to LIN28b, we predicted the binding mode of LN1632 to LIN28B. […] With this model in hand, we synthesized novel compounds with improved binding capacity to Lin28b (JGJ002-JGJ008, FIG. 8). Compounds were screened using a previously described FRET-assay with an EGFP-tagged LIN28B as donor and a BHQ-1 quencher labelled pre-let-7a-2 (pre-let-7a-2-BHQ1) as acceptor (51). Briefly, recombinant LIN28B-EGFP was harvested from stably transduced HEK cells and diluted with binding buffer (300 mM NaCl, 25 mM HEPES pH 7.2, 10 μM ZnCl2, 1% Odyssey Blocking Buffer, 0.05% Tween 20, 0.5 mM TCEP) in order to adjust ideal FRET-quenching signal intensity. Protein lysate and compounds (JGJ001-JGJ008) were pre-incubated in doses ranging from 1.25 uM-20 uM for 20 min in 100 uL diluted protein lysate. Subsequently pre-let-7a-2-BHQ1 was added to the mixture (at 6.25 nM) and EGFP-LIN28B donor emission was measured using a Tecan Spark Plate Reader ([…], excitation at 488 nm, emission read-out at […], 30 flashes/s). […] Increased endogenous let-7 miRNA levels can target a panoply of LCS and cancer stem cell hallmark genes thus inhibiting tumor growth.
(§1) To test the structure-activity relationship, 39 LN1632-related analogs (JGJ001-39) were synthesized and their potency and specificity to inhibit LIN28B-RNA binding activity and upregulate mature let-7 miRNA levels was measured. […] The dual luciferase reporter assay was performed as previously described (89).

Caco2 permeability = type: in vitro ADME; conditions: human, Caco-2, Conc. 5 uM
CYP 2D6 = CYP 2D6 (Homo sapiens, UniProt P10635); assay: CYP inhibition 2D6; type: in vitro ADME; parameters: unit not given here; conditions: Conc. 10 uM
[2] = Microsomal stability, CD-1 Mouse; type: in vitro ADME; conditions: Conc. 5 uM
[3] = Microsomal stability, Human; type: in vitro ADME; conditions: Conc. 5 uM
CYP 2C19 = CYP 2C19 (Homo sapiens, UniProt P33261); assay: CYP inhibition 2C19; type: in vitro ADME; parameters: unit not given here; conditions: Conc. 10 uM
mature let-7 miRNAs = assay: Dual luciferase reporter assay of mature let-7 miRNAs in HepG2 cells; type: cell-based; conditions: 3-10 μM, compared with LN1632
Protocol: as §1

CYP 2B6 = biological target: T2, CYP 2B6 (Homo sapiens, UniProt P20813); assay: CYP inhibition 2B6; type: in vitro ADME; parameters: unit not given here; conditions: Conc. 10 uM
T2 sequence (P20813 1-491): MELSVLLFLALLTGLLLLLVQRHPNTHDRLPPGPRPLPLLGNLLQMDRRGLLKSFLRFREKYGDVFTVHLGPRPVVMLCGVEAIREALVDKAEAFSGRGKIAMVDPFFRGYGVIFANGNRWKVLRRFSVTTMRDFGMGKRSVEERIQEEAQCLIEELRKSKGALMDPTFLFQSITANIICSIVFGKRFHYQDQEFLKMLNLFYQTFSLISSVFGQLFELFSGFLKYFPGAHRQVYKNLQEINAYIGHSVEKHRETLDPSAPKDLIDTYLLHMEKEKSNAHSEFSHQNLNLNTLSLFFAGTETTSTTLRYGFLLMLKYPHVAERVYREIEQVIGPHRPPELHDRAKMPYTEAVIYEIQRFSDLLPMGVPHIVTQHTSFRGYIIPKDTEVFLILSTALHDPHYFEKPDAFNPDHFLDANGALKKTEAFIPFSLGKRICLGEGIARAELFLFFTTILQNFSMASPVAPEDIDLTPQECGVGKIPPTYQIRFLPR

CYP 2C9 = CYP 2C9 (Homo sapiens, UniProt P11712); assay: CYP inhibition 2C9; type: in vitro ADME; parameters: unit not given here; conditions: Conc. 10 uM
CYP 2C8 = biological target: T3, CYP 2C8 (Homo sapiens, UniProt P10632); assay: CYP inhibition 2C8; type: in vitro ADME; parameters: unit not given here; conditions: Conc. 10 uM
T3 sequence (P10632 1-490): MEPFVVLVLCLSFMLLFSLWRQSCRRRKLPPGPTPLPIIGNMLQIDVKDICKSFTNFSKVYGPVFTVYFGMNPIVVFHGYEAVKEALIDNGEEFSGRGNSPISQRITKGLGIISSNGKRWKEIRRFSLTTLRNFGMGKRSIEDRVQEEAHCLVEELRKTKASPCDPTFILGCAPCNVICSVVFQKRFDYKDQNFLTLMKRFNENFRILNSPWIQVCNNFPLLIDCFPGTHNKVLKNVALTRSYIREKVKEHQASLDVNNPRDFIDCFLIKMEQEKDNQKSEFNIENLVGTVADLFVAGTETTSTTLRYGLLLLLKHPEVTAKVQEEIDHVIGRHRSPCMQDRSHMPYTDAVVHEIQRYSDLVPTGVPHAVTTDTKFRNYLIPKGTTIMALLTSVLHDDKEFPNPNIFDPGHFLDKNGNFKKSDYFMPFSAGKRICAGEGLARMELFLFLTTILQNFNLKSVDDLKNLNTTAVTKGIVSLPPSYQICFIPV

CYP 1A2 = biological target: T4, CYP 1A2 (Homo sapiens, UniProt P05177); assay: CYP inhibition 1A2; type: in vitro ADME; parameters: unit not given here; conditions: Conc. 10 uM
T4 sequence (P05177 1-516): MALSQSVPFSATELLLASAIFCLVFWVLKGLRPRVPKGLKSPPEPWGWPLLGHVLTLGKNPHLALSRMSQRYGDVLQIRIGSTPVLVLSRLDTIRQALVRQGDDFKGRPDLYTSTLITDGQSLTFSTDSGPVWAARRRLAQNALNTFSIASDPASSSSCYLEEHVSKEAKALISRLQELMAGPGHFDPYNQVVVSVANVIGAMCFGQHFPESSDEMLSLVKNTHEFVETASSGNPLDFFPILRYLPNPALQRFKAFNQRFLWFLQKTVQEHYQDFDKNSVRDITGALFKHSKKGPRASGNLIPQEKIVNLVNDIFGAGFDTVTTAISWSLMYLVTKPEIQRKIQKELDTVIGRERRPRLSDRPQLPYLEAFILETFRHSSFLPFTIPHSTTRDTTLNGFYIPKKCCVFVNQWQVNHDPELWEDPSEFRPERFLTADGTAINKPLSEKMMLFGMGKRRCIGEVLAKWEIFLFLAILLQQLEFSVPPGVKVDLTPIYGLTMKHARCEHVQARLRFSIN

A549 = assay: Cell viability, MTT assay, A549; type: cell-based; conditions: Homo sapiens, A549 (Lung)
Protocol: (§2) To measure cell viability, cell titer glow (CTG, Promega CellTiter-Glo 2.0 Assay) and MTT assays (SigmaAldrich, Cell Proliferation Kit I) were performed. Briefly, cells were serum starved overnight prior to seeding in 96-well plates. Following 24 h incubation, cells were treated with increasing concentrations of JGJ compounds for 96 hr. At assay read-out, CellTiter-Glo reagent was added and luminescence was measured after 10-minutes incubation at room temperature. For the MTT assay, MTT labeling reagent was added and incubated for 4 h. Subsequently, medium was removed and 50 μL DMSO was added to solubilize the crystals, and absorbance was measured at 570 nm. Cell viability was calculated as (Sample-Background)/(Control-Background).

H1975 = assay: Cell viability, MTT assay, H1975; type: cell-based; conditions: Homo sapiens, NCI-H1975, H1975 (Lung)
Protocol: as §2

[4] = microsomes, read-out: Microsomal stability T½

Sequence of CYP 2C9 (P11712 whole entry): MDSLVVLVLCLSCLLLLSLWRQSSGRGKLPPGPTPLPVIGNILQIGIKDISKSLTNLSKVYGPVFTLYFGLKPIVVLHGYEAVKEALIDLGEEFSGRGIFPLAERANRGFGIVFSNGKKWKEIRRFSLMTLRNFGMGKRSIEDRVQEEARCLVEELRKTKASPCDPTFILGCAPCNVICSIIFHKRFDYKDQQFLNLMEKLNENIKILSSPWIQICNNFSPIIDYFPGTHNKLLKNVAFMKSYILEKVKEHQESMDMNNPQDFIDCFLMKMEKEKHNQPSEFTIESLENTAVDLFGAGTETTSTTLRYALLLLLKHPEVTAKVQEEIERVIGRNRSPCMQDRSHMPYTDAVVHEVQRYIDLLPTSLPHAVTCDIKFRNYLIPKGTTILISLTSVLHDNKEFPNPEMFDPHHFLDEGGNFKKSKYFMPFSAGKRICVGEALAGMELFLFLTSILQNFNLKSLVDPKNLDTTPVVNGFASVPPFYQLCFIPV
Sequence of CYP 2D6 (P10635 whole entry): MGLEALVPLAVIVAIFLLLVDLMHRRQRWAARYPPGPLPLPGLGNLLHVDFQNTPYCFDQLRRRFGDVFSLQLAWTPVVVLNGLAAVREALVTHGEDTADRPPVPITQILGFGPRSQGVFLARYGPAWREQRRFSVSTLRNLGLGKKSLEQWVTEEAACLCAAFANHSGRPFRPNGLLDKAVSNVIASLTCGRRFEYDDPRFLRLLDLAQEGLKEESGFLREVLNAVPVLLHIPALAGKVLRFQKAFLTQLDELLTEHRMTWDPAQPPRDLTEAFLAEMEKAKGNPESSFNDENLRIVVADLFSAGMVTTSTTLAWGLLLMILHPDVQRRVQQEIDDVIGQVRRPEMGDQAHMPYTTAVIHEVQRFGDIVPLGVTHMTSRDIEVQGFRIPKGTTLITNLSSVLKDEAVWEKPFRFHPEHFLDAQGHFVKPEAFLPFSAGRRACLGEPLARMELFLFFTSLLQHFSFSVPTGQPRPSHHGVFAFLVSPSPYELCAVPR
Sequence of CYP 2C19 (P33261 whole entry): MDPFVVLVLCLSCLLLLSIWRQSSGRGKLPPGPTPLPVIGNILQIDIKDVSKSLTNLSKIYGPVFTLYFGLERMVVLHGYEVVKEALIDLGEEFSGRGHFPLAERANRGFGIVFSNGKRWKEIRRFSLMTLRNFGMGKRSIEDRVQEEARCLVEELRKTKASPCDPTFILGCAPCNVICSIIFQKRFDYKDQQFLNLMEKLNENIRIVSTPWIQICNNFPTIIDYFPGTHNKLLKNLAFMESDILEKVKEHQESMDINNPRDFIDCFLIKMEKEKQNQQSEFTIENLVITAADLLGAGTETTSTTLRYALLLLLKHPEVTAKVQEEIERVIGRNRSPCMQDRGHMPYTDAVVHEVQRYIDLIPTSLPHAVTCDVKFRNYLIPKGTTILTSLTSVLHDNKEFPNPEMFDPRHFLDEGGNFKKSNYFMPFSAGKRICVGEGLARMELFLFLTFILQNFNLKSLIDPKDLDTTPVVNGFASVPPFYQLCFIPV

## Cc1cnc2ccc(-c3cccc([N+](=O)[O-])c3)nn12 [JGJ005, 3-Methyl-6-(3-nitrophenyl)imidazo[1,2-b]pyridazine]
[1]
  Inhibition of LIN28B binding to pre-let-7a (FRET signal): greater inhibition of the LIN28B/pre-let-7a2 binding than the original compound LN1632

## CC(=O)N(C)c1cccc(-c2ccc3ncc(C)n3n2)c1 [JGJ008, N-Methyl-N-(3-(3-methylimidazo[1,2-b]pyridazin-6-yl)phenyl)acetamide]
[1]
  Inhibition of LIN28B binding to pre-let-7a (FRET signal): greater inhibition of the LIN28B/pre-let-7a2 binding than the original compound LN1632

## CC(=O)Nc1cc(F)cc(-c2ccc3ncc(C)n3n2)c1 [JGJ026, N-(3-Fluoro-5-(3-methylimidazo[1,2-b]pyridazin-6-yl)phenyl)acetamide]
Caco2 permeability
  Papp A→B at 5 uM: 27.2 ×10⁻⁶ cm/s
  Papp B→A at 5 uM: 25 ×10⁻⁶ cm/s
  efflux ratio at 5 uM: 0.6
Caco2 permeability; read-out: Caco2 Mean A-B % Recovery
  recovery at 5 uM: 84%
CYP 2D6
  CYP inhibition 2D6: 67.8
[2]
  Microsomal stability % Remaining at T30: T30 = 17%
[2]; microsomes
  microsomal CLint at 5 uM: 118 µL/min/mg
[2]; [4]
  half-life at 5 uM: 11.8 min
[3]
  Microsomal stability % Remaining at T30: T30 = 54.7%
[3]; microsomes
  microsomal CLint at 5 uM: 38.2 µL/min/mg
[3]; [4]
  half-life at 5 uM: 36.2 min
CYP 2C19
  CYP inhibition 2C19: 35
Mature let-7 miRNAs
  Upregulation of mature let-7 miRNAs: upregulated mature let-7 miRNAs at significantly lower doses than LN1632
CYP 2B6
  CYP inhibition 2B6: 30.9
CYP 2C9
  CYP inhibition 2C9: 48.8
[1]
  Inhibition of LIN28B binding to pre-let-7a (FRET signal): inhibit LIN28's RNA-binding capacity significantly more than compound LN1632
CYP 2C8
  CYP inhibition 2C8: 61.1
CYP 1A2
  CYP inhibition 1A2: 96.2

## C=CC(=O)Nc1cc(Nc2nccc(-c3cn(C)c4ccccc34)n2)c(OC)cc1N(C)CCN(C)C [Osimertinib, reference compound]
A549
  pIC50: 4.96
H1975
  pIC50: 4.68

## Nc1cccc(-c2ccc3ncc(-c4ccccc4)n3c2)c1 [JGJ032, 3-(3-Phenylimidazo[1,2-a]pyridin-6-yl)aniline]
[1]
  Inhibition of LIN28B binding to pre-let-7a (FRET signal): inhibit LIN28's RNA-binding capacity significantly more than compound LN1632
